From ChEMBL document CHEMBL1122928, “Stereostructure-activity relationship of opioid agonist and antagonist bivalent ligands. Evidence for bridging between vicinal opioid receptors” (J Med Chem, 1985)

Legend:
[1] = biological target: T1, Opioid receptors; mu/kappa/delta (Homo sapiens) (UniProt P41145+P41143+P35372); assay: The relative potency was evaluated with respect to morphine.; settings: Cavia porcellus
[2] = biological target: T1, Opioid receptors; mu/kappa/delta (Homo sapiens); assay: In vitro agonist activity towards opioid receptor on the electrically stimulated Guinea pig ileal longitudinal muscle (GPI); morphine IC50/ agonist IC50 in the same tissue; format: functional; settings: Cavia porcellus; target entry is the homologue from another species

T1 sequence (P35372 whole entry, looked up): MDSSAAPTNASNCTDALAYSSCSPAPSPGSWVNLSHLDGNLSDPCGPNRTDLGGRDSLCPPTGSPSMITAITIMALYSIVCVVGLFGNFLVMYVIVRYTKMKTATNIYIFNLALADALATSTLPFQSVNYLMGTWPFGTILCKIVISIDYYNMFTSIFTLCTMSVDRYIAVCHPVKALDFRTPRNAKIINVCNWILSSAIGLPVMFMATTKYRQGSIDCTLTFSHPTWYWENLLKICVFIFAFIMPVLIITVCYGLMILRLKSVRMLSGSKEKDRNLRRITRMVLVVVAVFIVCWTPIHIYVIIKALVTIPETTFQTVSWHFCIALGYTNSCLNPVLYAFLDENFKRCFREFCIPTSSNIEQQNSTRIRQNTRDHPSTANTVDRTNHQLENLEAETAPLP
T1 sequence (P41143 whole entry, looked up): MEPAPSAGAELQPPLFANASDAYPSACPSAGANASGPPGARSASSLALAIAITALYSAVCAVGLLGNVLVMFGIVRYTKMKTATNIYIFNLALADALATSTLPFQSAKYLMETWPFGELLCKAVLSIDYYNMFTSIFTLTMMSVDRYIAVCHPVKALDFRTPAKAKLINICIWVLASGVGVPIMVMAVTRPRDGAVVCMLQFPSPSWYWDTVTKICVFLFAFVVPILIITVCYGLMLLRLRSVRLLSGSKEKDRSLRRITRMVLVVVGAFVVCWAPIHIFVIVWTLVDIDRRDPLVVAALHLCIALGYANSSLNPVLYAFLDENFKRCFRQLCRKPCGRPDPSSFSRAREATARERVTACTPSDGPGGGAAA
T1 sequence (P41145 whole entry, looked up): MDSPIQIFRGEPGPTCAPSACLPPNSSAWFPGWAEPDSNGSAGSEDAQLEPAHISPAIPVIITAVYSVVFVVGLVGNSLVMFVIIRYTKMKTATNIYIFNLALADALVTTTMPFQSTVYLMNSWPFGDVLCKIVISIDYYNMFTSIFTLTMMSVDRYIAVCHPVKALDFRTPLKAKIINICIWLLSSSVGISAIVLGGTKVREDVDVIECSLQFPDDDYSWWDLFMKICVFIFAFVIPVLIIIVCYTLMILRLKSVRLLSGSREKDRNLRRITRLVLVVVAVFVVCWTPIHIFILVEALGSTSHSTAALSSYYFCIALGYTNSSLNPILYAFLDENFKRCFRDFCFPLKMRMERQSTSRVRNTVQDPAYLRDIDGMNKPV

O=C(CCC(=O)NCC(=O)NCC(=O)NC1CCC2(O)[C@H]3Cc4ccc(O)c5c4C2(CCN3CC2CC2)C1O5)NCC(=O)NCC(=O)NC1CCC2(O)[C@@H]3Cc4ccc(O)c5c4C2(CCN3CC2CC2)C1O5 (single isomer, unassigned; (-))
Relative potency [1]: 33.5
Potency ratio [2]: 181

CC(=O)NCC(=O)NCC(=O)NC1CCC2(O)[C@H]3Cc4ccc(O)c5c4C2(CCN3CC2CC2)C1O5 (stereo partly drawn)
Relative potency [1]: 1
Potency ratio [2]: 5.4

CN1CCC23c4c5ccc(O)c4OC2C(NC(=O)CNC(=O)CNC(=O)CCC(=O)NCC(=O)NCC(=O)NC2CCC4(O)[C@H]6Cc7ccc(O)c8c7C4(CCN6C)C2O8)CCC3(O)[C@H]1C5 (stereo partly drawn)
Potency ratio [2]: 7.6

CC(=O)NCC(=O)NCC(=O)NC1CCC2(O)[C@H]3Cc4ccc(O)c5c4C2(CCN3C)C1O5 (stereo partly drawn)
Potency ratio [2]: 1.9

O=C(CCC(=O)NCC(=O)NCC(=O)NC1CCC2(O)[C@H]3Cc4ccc(O)c5c4C2(CCN3CC2CC2)C1O5)NCC(=O)NCC(=O)NC1CCC2(O)[C@H]3Cc4ccc(O)c5c4C2(CCN3CC2CC2)C1O5 (stereo partly drawn)
Relative potency [1]: 1.4
Potency ratio [2]: 7.8
